According to patent US7745424B2, “Alkane diol derivatives as therapeutic agents for the treatment of bone conditions” (The Univeristy Court of the University of Aberdeen, priority 2001, dated 2010):
Entries after “also recorded” stand apart in the source; their conditions may differ.

Tests used:
osteoclasts = test: Murine co-culture system (osteoblast-bone marrow co-culture on dentine); assay type: cell-based, mice; conditions: for inhibition of osteoclast formation and activity: murine co-culture system
Experimental: The first model system, the murine co-culture system, studies the formation of osteoclasts_from precursors present in the bone marrow. The number of osteoclasts and the amount of dentine resorption was measured.
Osteoclast formation and activity was studied using an adaptation (see, e.g., van't Hof & Ralston, 1997) of the osteoblast-bone marrow co-culture assay originally described by Takahashi et al., 1988.
Co-Culture Methods. Co-culture (see, e.g., Van't Hof et al., 1997) is a method to study the formation of osteoclasts from their precursors. In this assay, osteoblasts were obtained from the calvaria of 2-3 day old neonatal mice. These were plated on dentine, stimulated with 1,25-dihydroxy vitamin D3 to stimulate RANKL and M-CSF expression. Early osteoclast precursors were present in the bone marrow of adult mice. The bone marrow suspension was purified to remove the red blood cells and the remainder cultured on top of the osteoblast layer. The stimulatory factors then allowed the osteoclast precursors to differentiate into mature osteoclasts. At the end of the culture osteoclasts were identified by TRAcP staining and the resorption activity was measured in the same manner as for rabbit osteoclasts.
Preparation of Dentine. The dentine was elephant ivory, preferred to bone because of its uniform surface, which facilitates easy visualisation of resorption pits. It was cut into slices of approximately 200 μm thickness using a Buehler Isomet low speed saw with a diamond wafering blade (series 15 HC). These slices were polished by hand, to a high degree, until one side was shiny. Out of these slices, discs were punched that fit the wells of a 96 well plate, using a paper puncher. Excess residues from the polish were removed by sonication. The discs were then stored in 70% ethanol until required. These discs were then dried and placed shiny side up in the wells of a 96 well plate. Cells were seeded onto the dentine. Following completion of the culture, these dentine slices were carefully removed from the plate and studied under the microscope.
Osteoblast Isolation. Briefly, osteoblasts were isolated from the calvarial bones of 2-day-old mice by sequential collagenase digestion (type I collagenase, Sigma) and cultured in αMEM supplemented with 10% FCS (foetal calf serum) and penicillin and streptomycin at 37° C. in 5% CO2.
More specifically, osteoblasts were obtained from a collagenase digestion of the calvaria (skull bones) of 2-3 day old neo-natal MF1 mice. At this stage in their development these are soft and easily removed. The calvaria from 5-6 mice were carefully dissected and washed in HBSS (Hank's balanced saline solution). The calvaria were placed in a 15 ml tube and shaken at 37° C. in 4 ml collagenase (10 mg/ml) for 10 minutes. This removes the excess unwanted tissue. The liquid was disposed of and a further 4 ml collagenase (10 mg/ml) added to the tube. The calvaria were then digested for a further 30 minutes. After this the supernatant (F1) was removed and retained. The calvaria were washed with a 2×4 ml PBS and this was added to F1. 4 ml EDTA (ethylene diamine tetraacetic acid) (4 mM in PBS) was then added to complex the calcium and allow further extraction of osteoblasts. This was shaken for 10 minutes at 37° C. The supernatant was removed and retained (F2). The calvaria were again washed with 2×4 ml HBSS and this was added to F2. The final 4 ml of collagenase (10 mg/ml) was added to the tube and this was again shaken at 37° C. for 30 minutes. […]

[1] = tested on: macrophage cell line J774; test: MTT macrophage J774 viability assay; assay type: cell-based; conditions: MTT assay; for macrophage J774 viability, activity in words: range of concentrations (FIGS. 4-7); for IC50: Mus musculus, macrophage J774 viability
Experimental: MTT (3-(4,5-dimethylthiazol-2-yl)-2,5-diphenyl tetrazolium bromide) has an […] colour and is soluble in the medium used for cell culture. The mitochondrial enzyme succinate dehydrogenase acts upon MTT in living cells to produce the insoluble purple coloured formazan. The amount of formazan produced, as measured by UV/visible spectroscopy, is proportional to the number of viable cells.
The medium was carefully removed using a needle without dislodging the crystal layer. 100 μL acidified isopropanol (4 M HCl 1:100 v/v in isopropanol) was added to each well and the purple crystals allowed to dissolve. The absorbance was measured in a plate reader at 540 nm, with 690 nm as reference. The controls were a deep purple colour, indicating a high number of live cells.
Addition of Compounds. […] These stock solutions were then diluted 100× in culture medium.

[2] = tested on: macrophage cell line J774; test: Alamar Blue macrophage J774 viability assay; conditions: Mus musculus, J774, 72 h, read-out: IC50 (μM) Alamar Blue
rabbit osteoclasts = test: Rabbit osteoclast culture system; assay type: cell-based; conditions: for rabbit osteoclast numbers / resorption activity: rabbit osteoclast culture on dentine
Excerpt: The second model system was the rabbit osteoclast system, where mature, functional osteoclasts were isolated from the long bones of rabbits and cultured on dentine slices.
Osteoclast Isolation. Osteoclasts were isolated from the long bones of 2-10 day-old rabbits, as described previously (see, e.g., reference Coxon et al., 2000). All 4 limbs were removed from the rabbits and placed in ice-cold PBS. Soft tissue and cartilage were removed and the bones transferred into fresh PBS. The bones were minced in aMEM (without FCS), using a scalpel. All the medium and fragments were transferred to a 50 ml tube, vortexed for 3×10 seconds and left to stand for 1 minute. The supernatant was removed and made up to 50 ml/rabbit with medium and FCS so as to give a final concentration of 10% FCS.
Osteoclast Plating. The cells were plated onto dentine slices in a 96 well plate, at 100 μL/well (medium: αMEM supplemented with 10% FCS and penicillin and streptomycin) and left for 4 hours to allow adherence to the dentine. After this period the medium was removed, and with it the non-adherent cells. Fresh medium was then added. The remaining population was highly enriched in osteoclasts.
Culturing. At this point, test compounds to be studied were added and the cells cultured at 37° C. in 5% CO2 for 48 hours. At the end of the culture, the osteoclasts were identified by staining for tartrate-resistant acid phosphatase (TRAcP) staining. A good number of osteoclasts in the controls was 100-200.
The resorption pit area was quantified by reflected light microscopy as described previously (see, e.g., van't Hof & Ralston, 1997) and again the results expressed as a % of the control values.

Row | Structure (SMILES) | IC50 [1] | IC50 [2] | also measured
1 | OCCCCO [1,4-butanediol, reference compound] | – | – | inhibition of osteoclast formation and activity (osteoclasts): no detected effect
2 | O=C(OCCCCO)C(c1ccccc1)(c1ccccc1)c1ccccc1 [ABD-0028, 1,4-Butandiol mono(triphenylacetic acid)Ester] | 20 µM | 30 µM | macrophage J774 viability, activity in words [1]: more potent
3 | O=C(Cc1ccc(-c2ccccc2)cc1)OCCCCO [ABD-0042, 1,4-Butanediol mono(biphenyl-4-yl-acetic acid)Ester] | 45 µM | 45 µM | macrophage J774 viability, activity in words [1]: very active
4 | O=C(OCCCCCCO)c1ccc(-c2ccccc2)cc1 [ABD-0054, 1,6-Hexanediol mono(biphenyl-4-carboxylic acid)Ester] | 35 µM | – | macrophage J774 viability, activity in words [1]: next most active; inhibition of osteoclast formation and activity (osteoclasts): significantly inhibited; rabbit osteoclast numbers (rabbit osteoclasts): significantly reduced; resorption activity (rabbit osteoclasts): significantly reduced
5 | O=C(OCCCCO)c1ccc(-c2ccccc2)cc1 [ABD-0056, 1,4-Butanediol mono(biphenyl-4-carboxylic acid)Ester] | 3.5 µM | 18 µM | number of murine osteoclasts (osteoclast precursors) (osteoclasts; compound added at Day 2, removed at Day 4, terminated at Day 10 (FIG. 15)): even more effective against osteoclast precursor formation than against mature osteoclasts; resorption pit area (osteoclast precursors) (osteoclasts; compound added at Day 2, removed at Day 4, terminated at Day 10, all concentrations tested (FIG. 16)): virtually no resorption; inhibition of osteoclast formation and activity (osteoclasts): significantly inhibited; also recorded: potent inhibitor; concentrations showing a significant effect (rabbit osteoclasts; osteoclast numbers and resorption activity): ≥ 10 µM; rabbit osteoclast numbers (rabbit osteoclasts): significantly reduced; resorption activity (rabbit osteoclasts): significantly reduced
6 | O=C(OCCCCO)c1ccc(-c2ccc(F)cc2)cc1 [ABD-0100, 1,4-Butandiol mono(4′-fluoro-biphenyl-4-carboxylic acid)Ester] | – | 14 µM | –
7 | O=C(OCCCCO)c1ccc(-c2ccc(Br)cc2)cc1 [ABD-0102, 1,4-Butanediol mono(4′-bromo-biphenyl-4-carboxylic acid)Ester] | – | 14 µM | –
8 | O=C(OCCCCO)c1c(F)ccc(F)c1F [ABD-0106, 1,4-Butanediol mono(2,3,6-trifluorobenzoic acid)Ester] | – | > 100 µM | –
9 | O=C(OCCCCO)c1ccc(F)c(F)c1 [ABD-0107, 1,4-Butanediol mono(3,4-difluorobenzoic acid)Ester] | – | > 100 µM | –
10 | O=C(OCCCCO)c1ccc(F)c(F)c1F [ABD-0108, 1,4-Butanediol mono(2,3,4-trifluorobenzoic acid)Ester] | – | > 100 µM | –
11 | O=C(OCCCCO)c1cc(F)c(F)cc1F [ABD-0109, 1,4-Butanediol mono(2,4,5-trifluorobenzoic acid)Ester] | – | > 100 µM | –
12 | O=C(OCCCCO)c1ccc(F)cc1F [ABD-0110, 1,4-Butanediol mono(2,4-difluorobenzoic acid)Ester] | – | > 100 µM | –
13 | O=C(OCCCCOC(=O)c1ccc(F)cc1F)c1ccc(F)cc1F [ABD-0111, 1,4-Butanediol di(2,4-difluorobenzoic acid)Ester] | – | > 100 µM | –
